Here are results for nine compounds from patent EP0199262A2, “Fluorinated benzyl triazole compounds” (CIBA-GEIGY AG, priority 1985, dated 1986).

The test system of experiment [1] is durch Elektroschock ausgelöste Konvulsionen. Description: Protection against electroshock-induced convulsions, mouse. It is filed as in vivo, Maus. The following applies: po, read-out: effektive Dosis ED50. On the procedure:
(§1) Die neuen Verbindungen besitzen wertvolle pharmakologische Eigenschaften, insbesondere eine ausgeprägte antikonvulsive Wirksamkeit, die sich beispielsweise an der Maus anhand eines deutlichen Metrazol-Antagonismus im Dosisbereicn von etwa 30 bis 300 mg/kg p.o. sowie an Maus und Ratte anhand einer ausgeprägten Schutzwirkung gegen durch Elektroschock ausgelöste Konvulsionen im Dosisbereich von etwa 1 bis etwa 50, in den meisten Fällen von etwa 1 bis etwa 25 mg/kg p.o. zeigen lässt. In diesem Modell wurden beispielsweise die folgenden Werte für die effektive Dosis ED50 in mg/kg p.o. erhalten (1 h Vorapplikation): • 1-(2,6-Difluorbenzyl)-1 H-1,2,3-triazof-4-carboxamid: 17 (Maus bzw. 8 (Ratte); • 1-(o-Fluorbenzyl)-1H-1,2,34dazol-4-carboxamid: 17 (Maus, Ratte); • 1-(2,6-Difluorbenzyl)-1 H-1,2,3-triazol-4,5-dicarboxamid: 4 (Maus, Ratte); • 1-(6-Chlor-2-fluor-phenyl)-1 H-1,2,3-triazol-4,5-dicarboxamid: 7 (Maus) bzw. 10 (Ratte), • 1-(o-Fluorphenyl)-1H-1,2,3-triazof-4,5-dicarboxamid: 6 (Maus) bzw. 10 (Ratte); • 1-(6-Chlor-2-fluar-phenyl)-1H-1,2,3-triazol-4-carboxamid: 11 (Maus); 1-(2,5-Difluorbenzyl)-1H-1,2,3-triazol-4,5-dicarboxamid: 6 (Maus).
(§2) Die erfindungsgemäss bereitgestellten fluorierten 1-(a-Phenylalkyl)-1H-1,2,3-triazolverbindungen der Formel (I) weisen ihren als antikonvulsiv wirksam bekannten Chloranalogen gegenüber den Vorteil einer verbesserten Wirksamkeit auf. So ergaben sich in obigem Modell z.B. folgende Ed50-Werte: • 1-(o-Chlorbenzyl)-1 H-1,2,3-triazol-4-carboxamid: 26 (Maus) bzw. 25 (Ratte) und • 1-(o-Chlorbenzyl)-1 H-1,2,3-triazol-4,5-dicarboxamid: 40 (Maus) bzw. 43 (Ratte).

The test system is the same in experiment [2]. Description: Protection against electroshock-induced convulsions, rat. It is filed as in vivo, Ratte. As to conditions: po, read-out: effektive Dosis ED50. The protocol: as §1, §2
Where [3] appears, read: Maus, electroshock, p.o., 1 h Vorapplikation.
Setting [4] is: Ratte, electroshock, p.o., 1 h Vorapplikation.

For orientation: ED50 means the dose that gives a 50% effect, or the effect in half of the subjects.

Take `NC(=O)c1nnn(Cc2cc(F)ccc2F)c1C(N)=O` [1-(2,5-Difluorbenzyl)-1H-1,2,3-triazol-4,5-dicarboxamid]: the ED50 in experiment [1] (setting [3]) is 6 mg/kg. As to `NC(=O)c1cn(Cc2c(F)cccc2F)nn1` [1-(2,6-Difluorbenzyl)-1 H-1,2,3-triazol-4-carboxamid], the ED50 in experiment [2] (setting [4]) came to 8 mg/kg; in experiment [1] (setting [3]), 17 mg/kg. Take `NC(=O)c1nnn(Cc2c(F)cccc2F)c1C(N)=O` [1-(2,6-Difluorbenzyl)-1H-1,2,3-triazol-4,5-dicarboxamid]: the ED50 in experiment [2] (setting [4]) and in experiment [1] (setting [3]) was 4 mg/kg each time.

As to `NC(=O)c1nnn(Cc2c(F)cccc2Cl)c1C(N)=O` [1-(6-Chlor-2-fluor-benzyl)-1 H-1,2,3-triazol-4,5-dicarboxamid], the ED50 was determined as 10 mg/kg in experiment [2] (setting [4]) and 7 mg/kg in experiment [1] (setting [3]).

For `NC(=O)c1cn(Cc2c(F)cccc2Cl)nn1` [1-(6-Chlor-2-fluor-benzyl)-1H-1,2,3-triazol-4-carboxamid], the ED50 in experiment [1] (1 h) was 11 mg/kg. As to `NC(=O)c1nnn(Cc2ccccc2Cl)c1C(N)=O` [1-(o-Chlorbenzyl)-1 H-1,2,3-triazol-4,5-dicarboxamid, reference compound], the ED50 in experiment [2] (setting [4]) was found to be 43 mg/kg; in experiment [1] (setting [3]), 40 mg/kg.

As to `NC(=O)c1cn(Cc2ccccc2Cl)nn1` [1-(o-Chlorbenzyl)-1 H-1,2,3-triazol-4-carboxamid, reference compound], the ED50 was found to be 25 mg/kg in experiment [2] (1 h) and 26 mg/kg in experiment [1] (1 h). As to `NC(=O)c1nnn(Cc2ccccc2F)c1C(N)=O` [1-(o-Fluorbenzyl)-1 H-1,2,3,-triazol-4,5-dicarboxamid], the results for the ED50 in experiment [2] (setting [4]) and in experiment [1] (setting [3]) were 10 mg/kg and 6 mg/kg, respectively.

For `NC(=O)c1cn(Cc2ccccc2F)nn1` [1-(o-Fluorbenzyl)-1 H-1,2,3-triazol-4-carboxamid], the ED50 in experiment [2] (1 h) and in experiment [1] (1 h) was 17 mg/kg in each case.
